Among the data in the METLIN SMRT retention time set (Domingo-Almenara et al. 2019) are RP-LC retention time values, retold here.

Each structure is given as a SMILES string.

The series can be described thus: gradient 5% acetonitrile 3 min, to 50% in 2 min, to 85% in 15 min, held 3 min, 100 µL/min. The settings on record: column: Zorbax Extend-C18 2.1 x 50 mm; eluents: water / acetonitrile, 0.1% formic acid. Put shortly: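 Each retention time is based on an adduct peak selected computationally and verified by manual inspection. Measurements used HPLC–quadrupole time-of-flight mass spectrometry in positive and negative ionization mode on mixtures of ~100 pure standards. Chromatography ran on a Zorbax Extend-C18 column (2.1 × 50 mm, 1.8 μm) at 100 μL/min with water and acetonitrile, each containing 0.1% formic acid, and dead and dwell volumes of 40 μL and 900 μL.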
In turn, `COCCn1ncc(N2CCC(C(=O)Nc3ccc(F)cc3F)C2)cc1=O` (centres undefined) came in with an RP-LC retention time of 666 s. For the compound `O=C(CCc1nc2ccccc2s1)NCC12CCCC=C1NC(=O)CC2` (centres undefined), the RP-LC retention time is 695 s.

`C=CCn1nc(-c2nc(-c3cccc(Cl)c3)no2)ccc1=O` had an RP-LC retention time of 1060 s. Regarding `CCCCN(C)c1nc(-c2ccc(Cl)cc2Cl)nc2ccccc12`, the RP-LC retention time stood at 893 s. The figure for `COc1ccc2c(c1)C1(CCN(S(=O)(=O)c3ccc(F)c(F)c3)C1)C(=O)N2` (centres undefined) is 837 s; for `CSc1ccccc1NC(=O)c1cn2c(n1)CCCC2` it is 638 s; for `CC(NC(=O)CC1CCCCC1)C(=O)Nc1nc2ccccc2[nH]1` (centres undefined) it is 663 s.

Turning to `N#Cc1c(NC(=O)C2Cc3ccccc3C(=O)O2)sc2c1CCCC2` (centres undefined), the RP-LC retention time turned out to be 663 s.

Compound `CC(C)Cn1nc(CNC(=O)c2cnccn2)c2ccccc21` displayed an RP-LC retention time of 826 s. Consider `O=C(c1cc(Cl)ccc1Cl)N1CCN(c2cc(-c3ccc(F)cc3)[nH]n2)CC1`, for which the RP-LC retention time is 897 s. In the case of `COC(=O)C1=CN(C2CC2)c2cc(N3CCN(C)CC3)c(F)cc2S1(=O)=O`, the RP-LC retention time was 955 s.

Compound `O=C(CCc1ccccc1)N1CCN(C(=O)c2nnn3c2COC(c2ccccc2)C3)CC1` (centres undefined) came in with an RP-LC retention time of 891 s. As for `CC(C)C(=O)Nc1nc2cc(NC(=O)C3CCN(S(=O)(=O)N4CCCC4)CC3)ccc2s1`, the figure is 805 s. In turn, `CC(=O)N1CCc2sc(S(=O)(=O)N3CCN(c4cc(C)ccc4C)CC3)cc2C1` gave an RP-LC retention time of 1010 s.

In turn, `O=C(CN1CCN(Cc2nc(-c3ccc(F)cc3)cs2)CC1)NCc1ccco1` showed an RP-LC retention time of 595 s. For `CC(=O)c1cccc(Nc2c(C(=O)N3CCOCC3)cnc3nc(C)ccc23)c1`, the RP-LC retention time worked out at 584 s.

On to `O=C(Nc1ccc2c(c1)OCO2)C1CCN(c2cc(N3CCCC3)ncn2)CC1`, for which the RP-LC retention time was 642 s. For `Cc1ccc2c(c1)N(S(C)(=O)=O)CCC(C(=O)Nc1ccc(Cl)cc1)O2` (centres undefined), the RP-LC retention time was 1020 s.

`CCCC(=O)N1CCc2cn(C)c3cccc(c23)C1`: the RP-LC retention time turned out to be 832 s.

In the case of `COCCCNC(=O)CN1CC2=C(C1=O)C(c1ccccc1Cl)NC(=O)N2C` (centres undefined), the RP-LC retention time was 570 s. `Cc1ccc(-c2noc(-c3nc(-c4cccnc4)no3)n2)cc1`: the RP-LC retention time came out at 1090 s. The compound `O=C(Cn1ccn2nc(-c3ccc(F)cc3)c(CO)c2c1=O)Nc1ccc2c(c1)OCCO2` displayed an RP-LC retention time of 786 s. On to `COc1ccc(-c2csc(CN3CCN(C(=O)c4c(F)cccc4Cl)CC3)n2)cc1`, for which the RP-LC retention time came to 805 s. Turning to `CCOc1ccc(-c2ccc(=O)n(CCc3nc(-c4cccc(F)c4)no3)n2)cc1`, the RP-LC retention time came to 1040 s. As for `CN1CCO[C@@H](C(=O)NC2CC2)[C@@H]1c1ccccc1`, the figure is 562 s; as for `CCc1nc2cc(N3CCCC(C(=O)Nc4ccc(OC)cc4OC)C3)cnc2nc1CC` (centres undefined), 934 s.

In turn, `Cc1nc(-c2cc(S(=O)(=O)Nc3ccc(Br)c(C)c3)c(C)s2)cs1` showed an RP-LC retention time of 1120 s. As for `COCCCNC(=O)C1CCCN(c2ccc(-c3ccc(C)c(C)c3)nn2)C1` (centres undefined), the figure is 647 s; as for `CCOc1ccc(S(=O)(=O)N2CCCC(C(=O)NCc3cccnc3)C2)cc1C` (centres undefined), 685 s. As to `CCC(=O)N1CCCN(C2=NS(=O)(=O)C(c3ccc(F)cc3)=C2C)CC1`, the RP-LC retention time amounted to 698 s. Turning to `O=C(CN1CCCc2nc(C3CC3)ncc2C1=O)NCCCN1CCOCC1`, the RP-LC retention time came to 563 s. For `CCn1cc(CC(=O)NCc2cccc(F)c2)c2cccnc21`, the RP-LC retention time worked out at 716 s. For `O=C(NCc1cccc(Cl)c1)c1ccc(-c2nc3cccnc3n2C2CCCCC2)cc1`, the RP-LC retention time was 1050 s.

`Cc1cccc(NC(=O)Nc2nc(C)c(C(=O)NCc3ccc4c(c3)OCO4)s2)c1` came in with an RP-LC retention time of 1020 s. `COc1cccc(OC)c1C(=O)Nc1nc(-c2ccc3c(c2)NC(=O)C(C)O3)c(C)s1` (centres undefined) yielded an RP-LC retention time of 866 s. `Cc1ccc(Nc2nc(C(=O)NCCc3cccs3)nc3ccccc23)cc1`: the RP-LC retention time is 840 s. `CCOC(=O)CNC(=O)N1CCC(N2CCN(Cc3cccc(C)c3)C2=O)CC1` had an RP-LC retention time of 725 s. In turn, `COCCNC(=O)N1c2ccccc2NC2=C(C(=O)CC(C)(C)C2)C1c1ccc(F)cc1` (centres undefined) displayed an RP-LC retention time of 749 s. In the case of `COc1ccc(C2(C(=O)N3CCCC(c4nc(-c5ccc(NC(C)=O)cc5)no4)C3)CC2)cc1` (centres undefined), the RP-LC retention time amounted to 835 s. As for `O=C(NCC1CC(=O)N(Cc2ccc(F)cc2)C1)Nc1cccs1` (centres undefined), the figure is 668 s; as for `CCCN1C(=O)COc2ccc(-c3noc(-c4ccc(NC(C)=O)cc4)n3)cc21`, 948 s.

Compound `CCCCC(=O)Nc1cnc(N(CC)CC(=O)C(C)(C)C)c(C(=O)O)c1` gave an RP-LC retention time of 628 s. Compound `O=C(NCc1ccco1)C1CCCN(S(=O)(=O)Cc2ccc(Cl)cc2)C1` (centres undefined) had an RP-LC retention time of 888 s.

Compound `Cc1nc(-c2cc(S(=O)(=O)N3CCC(C(=O)NC4CCCCCCC4)CC3)c(C)s2)no1` came in with an RP-LC retention time of 1070 s. `COc1ccc(N2C(=O)CCS2(=O)=O)cc1S(=O)(=O)N1CCN(c2ccccn2)CC1` gave an RP-LC retention time of 603 s. `Cc1ccc(C)c(NC(=O)C2CCCN(S(=O)(=O)c3c[nH]c(C(=O)N4CCCC4)c3)C2)c1` (centres undefined): the RP-LC retention time turned out to be 821 s. `CCCNC(=O)Nc1ccc(NC(=O)N2CCCC(C(=O)NC3CCCCC3)C2)cc1` (centres undefined) registered an RP-LC retention time of 702 s.

As for `CCn1cc(S(=O)(=O)Nc2cccc(OC)c2)c2cccnc21`, the RP-LC retention time was 794 s. `COc1ccc(C(=O)Nc2cccn3c(C4CCC4)nnc23)cc1F` gave an RP-LC retention time of 769 s. Compound `Cc1[nH]c(C(=O)N2CCC(CC(=O)NCCCN3CCCCC3)CC2)c(C)c1C` returned an RP-LC retention time of 606 s. In turn, `Cc1c(Cl)cccc1Nc1c(-c2ccc(Cl)cc2)nc2ncccn12` registered an RP-LC retention time of 992 s. In turn, `COc1cc(OC)cc(-c2nnc(Cc3nc(-c4ccccc4C)no3)o2)c1` gave an RP-LC retention time of 1060 s. `Cc1c(C(=O)N2CCC(C)CC2)cnn1-c1ccc(-c2nc(C(C)(C)C)no2)cn1` displayed an RP-LC retention time of 1250 s. `O=C(NCc1ccco1)C1CCN(c2nc3ccc(-c4cncnc4)nc3s2)CC1` yielded an RP-LC retention time of 743 s. Take `Cc1ccc(-c2csc(NC(=O)CN3CCN(C(=O)C4CCCO4)CC3)n2)cc1` (centres undefined): the RP-LC retention time came out at 681 s. As for `COCc1noc([C@@H]2CC(F)(F)CN2C(=O)C(C)C)n1`, the figure is 711 s.

Consider `COc1cccc(-c2nc(C3CCN(S(=O)(=O)c4c(C)cc(C)cc4C)CC3)no2)c1`, for which the RP-LC retention time worked out at 1320 s. `CC(=O)N[C@@H]1CCNC[C@@H]1c1nc(-c2ccccc2)no1` registered an RP-LC retention time of 568 s.

Take `COCc1cc(=O)n(CC(=O)Nc2ccccc2F)c(N2CCOCC2)n1`: the RP-LC retention time amounted to 789 s. For `CCc1ccc(CNC(=O)c2ccc3c(c2)N(C)C(=O)C2CCCCN32)cc1` (centres undefined), the RP-LC retention time was found to be 663 s. As for `O=C(CC(=O)N1CCN(c2ccccc2)CC1)Nc1ccc2nc3n(c(=O)c2c1)CCCCC3`, the figure is 720 s. In the case of `CCN1C(=O)COc2ccc(-c3noc(-c4cnccn4)n3)cc21`, the RP-LC retention time turned out to be 802 s. `COc1ccc(CNC(=O)Cn2c(N3CCOCC3)nc(C)cc2=O)cc1` had an RP-LC retention time of 629 s. As to `Cc1nn(-c2ccccc2)c2c1N(CCCC(=O)NC1CC1)C(=O)CS2`, the RP-LC retention time was determined as 780 s.

Regarding `Cn1c(=O)c(N2CCC(NC(=O)Nc3ccc(F)c(Cl)c3)CC2)nc2ccccc21`, the RP-LC retention time amounted to 971 s.

In turn, `O=C(c1ccc2c(c1)nnn2CCN1CCOCC1)N1CCN(c2ccccc2)CC1` displayed an RP-LC retention time of 616 s. The figure for `CCN(C(=O)C1CCCN(S(=O)(=O)c2cc(-c3noc(C)n3)cs2)C1)c1ccccc1` (centres undefined) is 983 s; for `CNC(=O)c1sc2nc(-c3ccc(C)cc3)c(NCCOC)n2c1C` it is 712 s. `O=C(CN1CCN(C(=O)c2cc3cn(C4CCCC4)cc3s2)CC1)N1CCCC1`: the RP-LC retention time was found to be 1150 s. As for `CCOC(=O)c1ccc(NC(=O)c2csc(-c3cn(C)c4ncccc34)n2)cc1`, the figure is 826 s; as for `O=C(CN1CCC(c2nc(-c3cccc(F)c3)no2)CC1)NC1CCCCC1`, 705 s. As to `O=C(CCCn1ncn2c(cc3occc32)c1=O)N1CCN(c2ccccn2)CC1`, the RP-LC retention time was 577 s. The compound `O=C(Cc1csc2nc(-c3ccccc3)cn12)NCc1ccc2c(c1)OCO2` had an RP-LC retention time of 744 s. For `COCCN1CC2CN(C(=O)Nc3ccc4c(c3)OCCO4)CC(C1)O2`, the RP-LC retention time was found to be 580 s.

Take `CCOC(=O)CC(NC(=O)NCc1ccnc(N2CCCCC2)c1)c1ccccc1` (centres undefined): the RP-LC retention time is 645 s. Regarding `Cn1nccc1C(=O)N1CCc2c([nH]c3ccccc23)C1c1ccc(Cl)cc1` (centres undefined), the RP-LC retention time stood at 1080 s. The compound `Cc1cc(C)c(NC(=O)Cn2nc3c4cccc(C)c4ncn3c2=O)c(C)c1` returned an RP-LC retention time of 679 s.

As to `Cc1cc(C(F)F)n2nc(C(=O)Nc3ccc(C)c(C)c3)nc2n1`, the RP-LC retention time came to 860 s. For `COC[C@@H]1CN(S(=O)(=O)c2cccc(C#N)c2)C[C@H]1c1ccncc1`, the RP-LC retention time is 630 s.
